Test results reported in patent US11827628B2, “Compositions and methods for inhibition of the JAK pathway” (Rigel Pharmaceuticals, Inc., priority 2005, dated 2023).
Where a name gives a salt, the structure may show the parent alone. Read-outs that look alike come from different tables or passages of the source.

Columns and labels:
[1] = system: IL-4 stimulated expression of CD23 in human Ramos B cells (JAK-1 and JAK-3); assay: Assay for Ramos B-Cell Line Stimulated with IL-4 (CD23 upregulation, FACS); format: cell-based; details: read-out: IC50, Example 41
Procedure, shortened: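 Log-phase Ramos cells, 1 h compound pre-incubation at 37 °C; IL-4 50 units/mL final, 20-24 h; CD23-PE stain, FACS; IC50.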

[2] = system: up-regulation of ICAM-1 (CD54) by IFNγ in A549 lung epithelial cells; assay: A549 Epithelial Line Stimulated with IFNγ (ICAM-1 surface expression, FACS); format: cell-based, human; details: A549 epithelial line stimulated with IFNγ; ICAM-1 expression by FACS; read-out: IC50, Example 43
Text: (§1) The activity of the compounds of the invention may additionally be characterized by assaying the effect of the 2,4-substituted pyrimidinediamine compounds described herein on A549 lung epithelial cells and U937 cells. A549 lung epithelial cells and U937 cells up-regulate ICAM-1 (CD54) surface expression in response to a variety of different stimuli. Therefore, using ICAM-1 expression as readout, test compound effects on different signaling pathways can be assessed in the same cell type. Stimulation with IL-1β through the IL-1β receptor activates the TRAF6/NFκB pathway resulting in up-regulation of ICAM-1. IFNγ induces ICAM-1 up-regulation through activation of the JAK1/JAK2 pathway. The up-regulation of ICAM-1 can be quantified by flow cytometry across a compound dose curve and EC50, values are calculated. An exemplary assays of this type are described in greater detail in Examples 43 and 44
(§2) A549 lung epithelial cells up-regulate ICAM-1 (CD54) surface expression in response to a variety of different stimuli. Therefore, using ICAM-1 expression as readout, compound effects on different signaling pathways can be assessed in the same cell type. IFNγ up-regulates ICAM-1 through activation of the JAK/Stat pathway. In this example, the up-regulation of ICAM-1 by IFNγ was assessed.
The A549 lung epithelial carcinoma cell line originated from the American Type Culture Collection. Routine culturing was with F12K media (Mediatech Inc., Lenexa, KS, Cat. No. 10-025-CV) with 10% fetal bovine serum, 100 I.U. penicillin and […] streptomycin (complete F12k media). Cells were incubated in a humidified atmosphere of 5% CO2 at 37° C. Prior to use in the assay, A549 cells were washed with PBS and trypsinized (Mediatech Inc., Cat. No. 25-052-CI) to lift the cells. The trypsin cell suspension was neutralized with complete F12K media and centrifuged to pellet the cells. The cell pellet was resuspended in complete F12K media at a concentration of 2.0×10^5/mL. Cells were seeded at 20,000 per well, 100 μL total volume, in a flat bottom tissue culture plate and allowed to adhere overnight.
On day two, A549 cells were pre-incubated with a 2,4-substituted pyrimidinediamine test compound or DMSO (control) (Sigma-Aldrich, St. Louis, MO, Catalog No. D2650) for 1 hour. The cells were then stimulated with IFNγ (75 ng/mL) (Peprotech Inc., Rocky Hill, NJ, Cat. No. 300-02) and allowed to incubate for 24 hours. The final test compound dose range was 30 μM to 14 nM in 200 μL F12K media containing 5% FBS, 0.3% DMSO.
On day three, the cell media was removed and the cells were washed with 200 μL PBS (phosphate buffered saline). Each well was trypsinized to dissociate the cells, then neutralized by addition of 200 μL complete F12K media. Cells were pelleted and stained with an APC conjugated mouse anti-human ICAM-1 (CD54) (BD Pharmingen, San Diego, CA, Catalog #559771) antibody for 20 minutes at 4° C. Cells were washed with ice cold FACS buffer (PBS+2% FBS) and surface ICAM-1 expression was analyzed by flow cytometry. Detection was performed using a BD LSR I System Flow Cytometer, purchased from BD Biosciences of San Jose, California Events were gated for live scatter and the geometric mean was calculated (Becton-Dickinson CellQuest software version 3.3, Franklin Lakes, NJ). Geometric means were plotted against the compound concentration to generate a dose response curve.

[3] = system: up-regulation of ICAM-1 (CD54) by IFNγ in U937 human monocytic cells; assay: U937 IFNγ ICAM1 FACS Assay; format: cell-based; details: ICAM-1 expression by FACS, read-out: IC50, Example 44
Text: as §1, with “calculated.” for “calculated. An exemplary assays of this type are described in greater detail in Examples 43 and 44”
as §2, with “U937 human monocytic” for “A549 lung epithelial”
The U937 human monocytic cell line was obtained from ATCC of Rockville Maryland, catalog number CRL-1593.2, and cultured in RPM1-1640 medium containing 10% (v/v) FCS. U937 cells were grown in 10% RPMI. The cells were then plated at a concentration of 100,000 cells per 160 μL in 96 well flat bottom plates. […] Then 4 μL of test compound was transferred to 76 μL of 10% RPMI resulting in a 10× solution (100 μM test compound, 5% DMSO). For control wells, 4 μL of DMSO was diluted into 76 μL 10% RPMI.
The assay was performed in duplicate with 8 points (8 3-fold dilution concentrations from […]) and with 4 wells of DMSO only (control wells) under stimulated conditions and 4 wells of DMSO only under unstimulated conditions.
The diluted compound plate was mixed 2× using a multimek (Beckman Coulter of Brea, California) and then 20 μL of the diluted compounds was transferred to the 96 well plate containing 160 μL of cells, which were then mixed again twice at low speeds. The cells and compounds were then pre-incubated for 30 minutes at 37° C. with 5% CO2.
The 10× stimulation mix was made by preparing a 100 ng/mL solution of human IFNγ in 10% RPMI. […] The cells were kept under conditions for stimulation for 18-24 hours at 37° C. with 5% CO2.
The cells were transferred to a 96 well round bottom plate for staining and then kept on ice for the duration of the staining procedure. Cells were spun down at 1000 rpm for 5 minutes at 4° C., following which the supernatant was removed. Following removal of the supernatant, 1 μL APC conjugated mouse anti-human ICAM-1 antibody was added per 100 μL FACS buffer. The cells were then incubated on ice in the dark for 30 minutes. Following incubation, […] of FACS buffer was added and the cells were centrifuged at 1000 rpm for 5 minutes at 4° C., following which the supernatant was removed. After removal of the supernatant, 200 μL of FACS buffer was added and the cells were resuspended. After suspension, the cells were centrifuged at 1000 rpm for 5 min at 4° C. Supernatant was then removed prior to resuspension of the cells in 150 μL FACS buffer.
Detection was performed using a BD LSR I System Flow Cytometer, purchased from BD Biosciences of San Jose, California The live cells were gated for live scatter and the geometric mean of ICAM-APC was measured (Becton-Dickinson CellQuest software version 3.3, Franklin Lakes, NJ). Both % live cells and ICAM-1 expression was analyzed. The assays for the test compounds were carried out in parallel with a control compound of known activity.

[4] = Ramos B-cell line stimulated with IL-4, CD23 expression by FACS
[5] = Ramos B cells stimulated with IL-4, CD23 expression by FACS
[6] = U937 cells stimulated with IFNγ
[7] = Homo sapiens, U-937, U937 cells stimulated with IFNγ

SMILES	IC50 [1, 4]	IC50 [3, 6]	also measured
CNS(=O)(=O)c1cc(Nc2ncc(F)c(Nc3ccc(OCc4cc(C)on4)c(C)c3)n2)ccc1C [Compound I-239, 5-Fluoro-N2-[3-N-(methyl)aminosulfonyl-4-methylphenyl]-N4-[3-methyl-4-(5-methylisoxazol-3-yl)methyleneoxyphenyl]-2,4-pyrimidinediamine]	0.24 µM	7.06 µM	–
Cc1cc(COc2ccc(Nc3nc(Nc4cccc(S(=O)(=O)N(Cc5oc(=O)oc5C(C)(C)C)Cc5oc(=O)oc5C(C)(C)C)c4)ncc3F)cc2)no1 [Compound I-249, N2-{3-[N-N-Di-[(5-t-Butyl-1,3-dioxolene-2-one-4-yl)methylene]]aminosulfonylphenyl}-5-fluoro-N4-[4-(5-methylisoxazol-3-yl)methyleneoxyphenyl]-2,4-pyrimidinediamine]	0.512 µM	11 µM	–
N#CCOc1ccc(Nc2nc(Nc3cccc(S(N)(=O)=O)c3)ncc2F)cc1CO [Compound I-50, N2-(3-Aminosulfonylphenyl)-N4-(4-cyanomethoxy-3-hydroxymethylphenyl)-5-fluoro-2,4-pyrimidinediamine]	–	–	IC50 ([1]; Homo sapiens, Ramos, Ramos B-cell line stimulated with IL-4, CD23 expression by FACS): 0.373 µM; IC50 [3, 7]: 25.1 µM
Cc1c(Cl)cc(Nc2ncc(F)c(Nc3ccc(OC(F)(F)F)c(Cl)c3)n2)cc1S(N)(=O)=O [VI-14, N2-(3-Aminosulfonyl-5-chloro-4-methylphenyl)-N4-(3-chloro-4-trifluoromethoxyphenyl)-5-fluoro-2,4-pyrimidinediamine]	–	–	IC50 ([1]; Homo sapiens, Ramos, Ramos B cells stimulated with IL-4, CD23 expression by FACS): 0.413 µM; IC50 [3, 7]: 9.27 µM
Cc1ccc(Nc2ncc(F)c(Nc3ccc4c(c3)N(Cc3ccccn3)C(=O)CO4)n2)cc1S(N)(=O)=O [Compound V-3, N2-(3-Aminosulphonyl-4-methylphenyl)-5-fluoro-N4-[3-oxo-4-(2-pyridylmethy)-benz[1,4]oxazin-6-yl]-2,4-pyrimidinediamine]	–	13.7 µM	IC50 [1, 5]: 0.664 µM
CNS(=O)(=O)c1cc(Nc2ncc(F)c(Nc3ccc(OCc4ccccn4)cc3)n2)ccc1C [Compound I-161, 5-Fluoro-N2-[3-(N-methylaminosulfony)-4-methylphenyl]-5-fluoro-N4-[4-(2-pyridinyl)methyleneoxyphenyl]-2,4-pyrimidinediamine]	0.314 µM	2.41 µM	–
CCC(=O)NS(=O)(=O)c1cccc(Nc2ncc(F)c(Nc3ccc(OCc4nc(C)no4)cc3)n2)c1 [Compound I-264]	0.599 µM	15 µM	–
Cc1ccc(Nc2ncc(F)c(Nc3ccc(OCC#N)cc3)n2)cc1S(=O)(=O)NC(=O)C(C)C [Compound I-39, N4-(4-Cyanomethyleneoxy)phenyl-5-fluoro-N2-(3-isobutyrylaminosulfonyl-4-methyl)phenyl-2,4-pyrimidinediamine sodium Salt]	–	–	IC50 ([1]; Ramos B-cell line stimulated with IL-4, CD23 expression by FACS, sodium salt): 0.841 µM; IC50 ([3]; U937 cells stimulated with IFNγ, sodium Salt): 9.32 µM

Second part, led by results:

IC50 [1, 4]	IC50 [3, 6]	SMILES	also measured
0.781 µM	–	CN1CCN(S(=O)(=O)c2ccc(Nc3ncc(F)c(Nc4ccc(CC#N)cc4)n3)cc2)CC1 [III-6, N4-(4-Cyanomethyl)phenyl-5-fluoro-N2-[4-(4-methylpiperazin-1-yl)sulfonyl]phenyl-2,4-pyrimidinediamine]	IC50 [2]: 30.7 µM
–	0.345 µM	NC(=O)NCc1cccc(Nc2nc(Nc3ccc(S(N)(=O)=O)cc3)ncc2F)c1 [III-113, N4-(3-aminocarbonylaminomethyl)phenyl-N2-(4-aminosulfonyl)phenyl-5-fluoro-2,4-pyrimidinediamine]	IC50 [1, 5]: 1.03 µM
0.3 µM	0.834 µM	CCC(=O)NCc1ccc(Nc2nc(Nc3ccc(C)c(S(N)(=O)=O)c3)ncc2F)cc1 [III-37, N2-(3-aminosulfonyl-4-methyl)phenyl-N4-(4-ethylcarbonylaminomethyl)phenyl-5-fluoro-2,4-pyrimidinediamine]	–
0.347 µM	3.05 µM	CCN(CC)CCNS(=O)(=O)c1ccc(Nc2ncc(F)c(Nc3ccc(Cc4ccncc4)cc3)n2)cc1 [III-67, N2-[4-(2-N,N-Diethylaminoethyl)aminosulfonylphenyl)-5-fluoro-N4-[4-(4-pyridinylmethyl)phenyl]-2,4-pyrimidinediamine]	–
